What was measured:
CDK5/p35 = biological target: T1, CDK5/p35 (Homo sapiens, UniProt Q00535); assay: Z'-LYTE kinase assay CDK5/p35; type: biochemical; conditions: read-out: Kinase inhibition, IC50 CDK5/p35
T1 construct: purchased Invitrogen PV3000
Protocol: (§1) Kinase assays. The compounds from the example above were tested for their ability to inhibit kinases. Recombinant human CDK2/cyclinA (PV3267), CDK1/cyclinB (PV3292), CDK5/p35 (PV3000) and Aurora A (PV3612) were purchased from Invitrogen (Carlsbad, Calif., USA). Kinase dosage and Z′-LYTE™ substrate for each kinase assay is as follows: CDK2/cyclinA-8 ng/reaction, Ser/Thr 12 Peptide; CDK1/cyclinB-0.8 ng/reaction, Ser/Thr 12 Peptide, CDK5/p35-0.8 ng/reaction, Ser/Thr 12 Peptide, and Aurora A-16 ng/reaction, Ser/Thr 1 Peptide. All enzymatic assays were performed using Z′-LYTE™ Kinase Assay Kits and were carried out following protocols provided by Invitrogen. To prepare stock solutions, compounds were dissolved at 10 mM in 100% DMSO and stored at 4° C. in amber glass vials. Enzyme reactions were initiated by adding recombinant enzyme and Z′-LYTE™ Ser/Thr peptide substrate and ATP mixture to 384-well plates containing diluted test compounds. Kinase and corresponding peptide substrate were incubated for 1 hr at room temperature in the presence of varying amounts of test compound with reaction buffer (20 μM ATP, […] [pH 7.5], 5 mM MgCl2, 0.5 mM EGTA, 0.005% Brij-35). Development buffer was added and incubated for another one hour at room temperature. Reactions were terminated by addition of stop buffer, and fluorescence emission intensity ratio 445 nm/520 nm (excited at 400 nm) was quantified by VICTOR-3 Multilabel Reader (Perkin-Elmer, Waltham, Mass., USA). Phosphorylation was calculated from the emission ratio. IC50 was determined using Sigmoid curve-fitting software Origin 6.0 (MicroCal, LLC, Northampton, Mass., USA).

A549 cells = assay: 72 h MTT cytotoxicity assay A549; type: cell-based; conditions: Homo sapiens; A549, 72 hrs
Excerpt: (§2) MIT cytotoxicity assay. The compounds of the invention were subjected to a standard cellular proliferation assay using human cell lines. HeLa cells (Human cervix adenocarcinoma cell line, ATCC NO, CCL-2); A549 cells (Human lung carcinoma cells line, ATCC NO, CCL-185); U2OS cells (Human osteosarcoma cell line, ATCC NO, HTB-96); Eca-109 cells (Human esophageal carcinoma cell line); HepG2 (Human hepatocellular liver carcinoma cell line, ATCC NO, HB-8065); K562 cells (Human chronic myelogenous leukemia cell line, ATCC NO, CCL-243); SK-MEL-28 (Human malignant melanoma cell line, ATCC NO, HTB-72); Molt-4 (Human acute lymphoblastic leukemia cell line, ATCC NO, CRL-1582); H460 (Human large cell lung cancer cell line, ATCC NO, HTB-177); MDA-MB-231 (Human breast adenocarcinoma cell line, ATCC NO, HTB-26); MCF7 (Human breast adenocarcinoma cell line, ATCC NO, HTB-22); ACHN (Human renal cell adenocarcinoma cell line, ATCC NO, CRL-1611); PC-3M (Human prostate adenocarcinoma cell line, ATCC NO CRL-1435); HL60 (Human acute promyelocytic leukemia cell line, ATCC NO, CCL-240); THP-1 (Human acute monocytic leukemia, ATCC NO, TIB-202); Jurkat (Human acute T cell leukemia cell line, ATCC NO, CRL-2063); HCT-116 (Human colorectal carcinoma cell line, ATCC NO, CCL-247); HT-29 (Human colorectal adenocarcinoma cell line, ATCC NO, HTB-38™); WI-38 (Human normal lung cell line, ATCC NO, CCL-75); MRC-5 (Human normal lung cell line, ATCC NO, CCL-171).
(§3) HepG2, MDA-MB-231, WI-38 and MRC-5 cells were obtained from Shanghai Institute of Cell Biology, Chinese Academy of Sciences (Shanghai 200031, China). A549, HeLa, K562, MCF7, ACHN, H460, U2OS, Eca-109, MCF7, HL60, THP-1, Jurkat, HCT-116, HT-29, PC-3M, SK-MEL-28, Molt-4, H460 and […] cells were purchased from ATCC (American Type Culture Collection, USA).
(§4) Standard 72 h MTT (thiazolye blue; 3-[4,5-dimethylthiazol-2-yl]-2,5-diphenyltetrazolium bromide) assays were performed. Briefly, the cell lines used in this study were recovered and cultured according to the conditions recommended. 4000 cells per well were seeded into 96-well plates according to doubling time and incubated overnight at 37° C. Compounds were prepared in DMSO and a ½ dilution series in 100 μl cell culture media, added to cells (in duplicates) with the final DMSO concentration of 0.025%, and incubated for 72 hrs at 37° C. MTT solution (5 mg/ml) was added at 10 μl per well and incubated in the dark at 37° C. for 4 hr. Culture medium and MTT solution was removed. MTT dye was solubilised with 100 μl per well of DMSO with agitation. Absorbance was read at 562 nm and data analyzed using Sigmoid curve-fitting software Origin 6.0 (MicroCal, LLC, USA) to determine IC50 value.

CDK1/cyclinB = biological target: T2, CDK1/cyclinB (Homo sapiens, UniProt P06493); assay: Z'-LYTE kinase assay CDK1/cyclinB; type: biochemical; conditions: read-out: Kinase inhibition, IC50 CDK1B
T2 construct: purchased Invitrogen PV3292
T2 sequence (P06493 whole entry): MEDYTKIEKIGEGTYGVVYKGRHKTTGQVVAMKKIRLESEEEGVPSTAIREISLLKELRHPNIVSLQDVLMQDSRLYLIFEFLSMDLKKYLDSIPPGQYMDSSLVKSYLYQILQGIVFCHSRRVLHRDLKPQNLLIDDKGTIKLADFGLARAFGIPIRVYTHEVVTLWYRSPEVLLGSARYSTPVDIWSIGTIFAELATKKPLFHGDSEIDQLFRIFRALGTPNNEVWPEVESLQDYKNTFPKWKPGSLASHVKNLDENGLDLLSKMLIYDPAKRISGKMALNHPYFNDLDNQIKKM
T2 sequence (P14635 whole entry partner): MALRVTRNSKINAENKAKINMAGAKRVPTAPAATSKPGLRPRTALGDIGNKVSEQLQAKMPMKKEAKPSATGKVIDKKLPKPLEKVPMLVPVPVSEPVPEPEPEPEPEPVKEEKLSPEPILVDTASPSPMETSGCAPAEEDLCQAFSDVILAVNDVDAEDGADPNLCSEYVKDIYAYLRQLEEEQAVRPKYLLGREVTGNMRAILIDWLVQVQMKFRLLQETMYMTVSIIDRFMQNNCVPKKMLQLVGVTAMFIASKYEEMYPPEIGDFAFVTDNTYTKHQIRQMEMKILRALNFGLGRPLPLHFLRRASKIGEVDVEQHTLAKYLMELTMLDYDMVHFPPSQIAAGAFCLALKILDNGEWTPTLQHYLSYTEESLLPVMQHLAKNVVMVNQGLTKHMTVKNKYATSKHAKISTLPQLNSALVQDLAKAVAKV
Protocol: as §1

Molt-4-luc = assay: 72 h MTT cytotoxicity assay Molt-4-luc; type: cell-based; conditions: Homo sapiens
Excerpt: as §2, §3, §4

CDK9T1 = CDK9T1 (Homo sapiens, UniProt P50750); assay: Kinase assay CDK9T1 (Table I); type: biochemical; conditions: read-out: Kinase inhibition, IC50 CDK9T1
Sequence of CDK9T1 (P50750 whole entry): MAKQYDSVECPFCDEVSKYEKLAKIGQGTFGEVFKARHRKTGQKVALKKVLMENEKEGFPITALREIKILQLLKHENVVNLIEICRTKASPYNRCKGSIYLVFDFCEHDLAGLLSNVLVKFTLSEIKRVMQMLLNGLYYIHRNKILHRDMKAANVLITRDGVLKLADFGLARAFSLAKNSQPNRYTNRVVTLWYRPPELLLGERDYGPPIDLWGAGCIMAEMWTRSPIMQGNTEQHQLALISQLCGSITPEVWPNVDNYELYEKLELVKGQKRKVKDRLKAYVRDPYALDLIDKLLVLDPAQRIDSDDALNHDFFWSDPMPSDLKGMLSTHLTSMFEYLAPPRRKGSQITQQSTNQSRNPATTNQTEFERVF
Sequence of CDK9T1 (O60563 whole entry partner): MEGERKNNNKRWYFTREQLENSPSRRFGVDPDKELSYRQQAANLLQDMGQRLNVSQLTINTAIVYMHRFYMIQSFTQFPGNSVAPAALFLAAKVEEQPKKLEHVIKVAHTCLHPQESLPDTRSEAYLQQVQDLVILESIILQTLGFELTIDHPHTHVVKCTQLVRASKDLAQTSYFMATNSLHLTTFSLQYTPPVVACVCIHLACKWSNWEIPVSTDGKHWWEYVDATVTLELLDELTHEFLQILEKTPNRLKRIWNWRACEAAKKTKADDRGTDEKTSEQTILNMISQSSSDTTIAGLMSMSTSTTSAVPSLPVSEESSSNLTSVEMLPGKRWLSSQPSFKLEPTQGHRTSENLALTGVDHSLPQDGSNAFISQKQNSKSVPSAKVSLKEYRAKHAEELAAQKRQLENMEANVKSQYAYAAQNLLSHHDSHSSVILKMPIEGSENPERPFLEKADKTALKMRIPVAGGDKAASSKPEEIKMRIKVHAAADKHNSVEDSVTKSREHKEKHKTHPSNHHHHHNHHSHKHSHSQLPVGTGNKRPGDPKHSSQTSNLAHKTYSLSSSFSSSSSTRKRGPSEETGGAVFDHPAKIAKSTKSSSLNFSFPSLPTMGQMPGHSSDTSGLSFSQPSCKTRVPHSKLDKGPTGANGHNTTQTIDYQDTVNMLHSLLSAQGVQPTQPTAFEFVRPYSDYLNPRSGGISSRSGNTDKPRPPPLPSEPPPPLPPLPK
Protocol: [The source words this procedure for another target and reports this target under the same test.] as §1

HepG2 = assay: 72 h MTT cytotoxicity assay HepG2; type: cell-based; conditions: Homo sapiens; HepG2, 72 hrs
Excerpt: as §2, §3, §4

K562 cells = assay: 72 h MTT cytotoxicity assay K562; type: cell-based; conditions: Homo sapiens; K562, 72 hrs
Excerpt: as §2, §3, §4

MDA-MB-231-luc = assay: 72 h MTT cell viability MDA-MB-231-luc; type: cell-based; conditions: Homo sapiens
Excerpt: as §2, §3, §4

H460-luc = assay: 72 h MTT cytotoxicity assay H460-luc; type: cell-based; conditions: Homo sapiens, NCI-H460-Luc; H460-luc, 72 hrs; read-out: Cytotoxicity, MTT 72 hrs, IC50 H460-luc
Excerpt: as §2, §3, §4

CDK2/cyclinA = biological target: T3, CDK2/cyclinA (Homo sapiens, UniProt P24941); assay: Z'-LYTE kinase assay CDK2/cyclinA; type: biochemical; conditions: read-out: Kinase inhibition, IC50 CDK2A
T3 construct: purchased Invitrogen PV3267
Protocol: as §1

Aurora A = biological target: T4, Aurora A (Homo sapiens, UniProt O14965); assay: Z'-LYTE kinase assay Aurora A; type: biochemical; conditions: read-out: Kinase inhibition, IC50 Aurora A
T4 construct: purchased Invitrogen PV3612
T4 sequence (O14965 1-403): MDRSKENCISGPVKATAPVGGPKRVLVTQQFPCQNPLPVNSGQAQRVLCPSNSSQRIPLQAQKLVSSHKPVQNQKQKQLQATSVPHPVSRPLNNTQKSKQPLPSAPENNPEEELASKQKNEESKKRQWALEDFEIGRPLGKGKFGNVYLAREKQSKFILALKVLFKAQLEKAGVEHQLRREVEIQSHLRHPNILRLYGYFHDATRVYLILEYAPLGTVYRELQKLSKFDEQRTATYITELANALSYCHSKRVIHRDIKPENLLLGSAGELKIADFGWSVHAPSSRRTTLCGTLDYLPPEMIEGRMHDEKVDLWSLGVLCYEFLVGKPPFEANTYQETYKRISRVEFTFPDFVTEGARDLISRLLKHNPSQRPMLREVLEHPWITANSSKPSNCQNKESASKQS
Protocol: as §1

Aurora B = Aurora B (Homo sapiens, UniProt Q96GD4); assay: Kinase assay Aurora B (Table I); type: biochemical; conditions: read-out: Kinase inhibition, IC50 Aurora B
Sequence of Aurora B (Q96GD4 whole entry): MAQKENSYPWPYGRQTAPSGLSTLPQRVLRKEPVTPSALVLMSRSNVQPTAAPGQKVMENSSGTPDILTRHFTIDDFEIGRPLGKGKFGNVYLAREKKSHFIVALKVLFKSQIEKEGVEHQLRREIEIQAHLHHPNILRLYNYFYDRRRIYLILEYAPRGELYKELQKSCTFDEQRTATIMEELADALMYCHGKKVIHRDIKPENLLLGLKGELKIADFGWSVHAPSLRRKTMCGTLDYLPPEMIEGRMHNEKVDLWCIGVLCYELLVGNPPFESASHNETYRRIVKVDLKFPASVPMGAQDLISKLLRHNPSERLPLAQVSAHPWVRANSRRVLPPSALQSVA
Protocol: [The source words this procedure for another target and reports this target under the same test.] as §1

HeLa cells = assay: 72 h MTT cytotoxicity assay HeLa; type: cell-based; conditions: Homo sapiens
Excerpt: as §2, §3, §4

MCF7 = assay: 72 h MTT cytotoxicity assay MCF7; type: cell-based; conditions: Homo sapiens; MCF7, 72 hrs
Excerpt: as §2, §3, §4

SK-MEL-28-luc = assay: 72 h MTT cytotoxicity assay SK-MEL-28-luc; type: cell-based; conditions: Homo sapiens
Excerpt: as §2, §3, §4

U2OS cells = assay: 72 h MTT cytotoxicity assay U2OS; type: cell-based; conditions: Homo sapiens
Excerpt: as §2, §3, §4

WI-38 = assay: 72 h MTT cell viability WI-38 (normal lung); type: cell-based; conditions: Homo sapiens; WI-38, normal lung cell line
Excerpt: as §2, §3, §4

Eca-109 cells = assay: 72 h MTT cytotoxicity assay Eca-109; type: cell-based; conditions: Homo sapiens; Eca-109, 72 hrs
Excerpt: as §2, §3, §4

ACHN-luc = assay: 72 h MTT cell viability ACHN-luc; type: cell-based; conditions: Homo sapiens
Excerpt: as §2, §3, §4

T1 sequence (Q00535 whole entry): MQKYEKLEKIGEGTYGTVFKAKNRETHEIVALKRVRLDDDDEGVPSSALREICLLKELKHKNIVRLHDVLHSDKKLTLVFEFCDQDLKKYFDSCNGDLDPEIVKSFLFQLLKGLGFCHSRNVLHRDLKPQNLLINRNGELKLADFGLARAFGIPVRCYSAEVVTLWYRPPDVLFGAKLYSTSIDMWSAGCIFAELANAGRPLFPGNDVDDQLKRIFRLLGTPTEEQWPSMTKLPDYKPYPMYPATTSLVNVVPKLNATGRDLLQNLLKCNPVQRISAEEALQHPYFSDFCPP
T1 sequence (Q15078 whole entry partner): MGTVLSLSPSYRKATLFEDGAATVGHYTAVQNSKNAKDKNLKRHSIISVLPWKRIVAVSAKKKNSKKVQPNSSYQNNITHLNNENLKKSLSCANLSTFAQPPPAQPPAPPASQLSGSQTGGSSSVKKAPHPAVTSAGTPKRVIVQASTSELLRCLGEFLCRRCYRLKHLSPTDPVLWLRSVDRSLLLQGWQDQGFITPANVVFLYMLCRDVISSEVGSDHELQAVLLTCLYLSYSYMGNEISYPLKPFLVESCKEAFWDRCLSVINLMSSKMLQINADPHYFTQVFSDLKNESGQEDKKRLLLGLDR

| SMILES | IC50 (CDK5/p35) [nM] | IC50 (A549 cells) [µM] | IC50 (CDK1/cyclinB) [nM] | IC50 (Molt-4-luc) [µM] | IC50 (CDK9T1) [nM] | IC50 (HepG2) [nM] | IC50 (K562 cells) [µM] | IC50 (MDA-MB-231-luc) [µM] | IC50 (H460-luc) [µM] | IC50 (CDK2/cyclinA) [nM] | IC50 (Aurora A) [nM] | IC50 (Aurora B) [nM] | IC50 (HeLa cells) [µM] | IC50 (MCF7) [µM] | IC50 (SK-MEL-28-luc) [µM] | IC50 (U2OS cells) [µM] | IC50 (WI-38) [µM] | IC50 (Eca-109 cells) [µM] | IC50 (ACHN-luc) [µM] |
| --- | --- | --- | --- | --- | --- | --- | --- | --- | --- | --- | --- | --- | --- | --- | --- | --- | --- | --- | --- |
| CCn1cc(-c2ccnc(Nc3cccc(C(N)=O)c3)n2)c2cccnc21 [Compound 19, 3-(4-(1-Ethyl-1H-pyrrolo[2,3-b]pyridin-3-yl)pyrimidin-2-ylamino)benzamide] | 3180 | 3.43 | 1340 | 6.66 | 110 | 1410 | 15.4 | 8.51 | 3.63 | 272 | 290 | 1440 | 4.33 | 3.96 | > 10 | 9.54 | > 10 | > 10 | 3.46 |
| Cn1cc(-c2ccnc(Nc3ccc(O)cc3)n2)c2ccccc21 [Compound 2, 4-(4-(1-Methyl-1H-indol-3-yl)pyrimidin-2-ylamino)phenol] | 950 | 8.29 | 742 | 6.3 | 43 | 5970 | 6.17 | 6.16 | 6.39 | 305 | 150 | 200 | 4.93 | 9.56 | 6.37 | 7.33 | > 10 | 14.5 | 23.4 |
| CCCn1cc(-c2ccnc(Nc3cccc([N+](=O)[O-])c3)n2)c2cccnc21 [Compound 17, N-(3-Nitrophenyl)-4-(1-propyl-1H-pyrrolo[2,3-b]pyridin-3-yl)pyrimidin-2-amine] | > 10000 | 2.19 | 7640 | 6.29 | 160 | 1190 | 2.31 | 2.63 | 2.49 | 463 | 1160 | > 10000 | 4.22 | 4.93 | 5.48 | 4.91 | > 10 | 6.06 | 2.45 |
| Cn1cc(-c2ccnc(Nc3cccc(O)c3)n2)c2ccccc21 [Compound 1, 3-(4-(1-Methyl-1H-indol-3-yl)pyrimidin-2-ylamino)phenol] | 2610 | 6.03 | 2500 | 6.4 | – | 4550 | 4.78 | 6.33 | 6.19 | 543 | 280 | 340 | 4.7 | 10.1 | 6.47 | 5.99 | > 10 | 14.2 | 9.82 |
| CCn1cc(-c2ccnc(Nc3cccc(O)c3)n2)c2ccccc21 [Compound 7, 3-[4-(1-Ethyl-1H-indol-3-yl)-pyrimidin-2-ylamino]-phenol] | 375 | – | 1340 | – | 29 | – | – | – | – | 2 | 5840 | 1010 | – | – | – | – | – | – | – |
| CCn1cc(-c2ccnc(Nc3ccc(O)cc3)n2)c2ccccc21 [Compound 6, 4-[4-(1-Ethyl-1H-indol-3-yl)-pyrimidin-2-ylamino]-phenol] | 522 | – | 1210 | – | 26 | – | – | – | – | 3 | 1050 | 470 | – | – | – | – | – | – | – |
| CCn1cc(-c2ccnc(Nc3cccc([N+](=O)[O-])c3)n2)c2cccnc21 [Compound 14, 4-(1-Ethyl-1H-pyrrolo[2,3-b]pyridin-3-yl)-N-(3-nitrophenyl)pyrimidin-2-amine] | > 10000 | – | > 10000 | – | 790 | – | – | – | – | 1070 | 1340 | > 10000 | – | – | – | – | – | – | – |
| CCCn1cc(-c2ccnc(Nc3cccc(C(=O)N4CCN(C)CC4)c3)n2)c2cccnc21 [Compound 34, (4-Methylpiperazin-1-yl)(3-(4-(1-propyl-1H-pyrrolo[2,3-b]pyridin-3-yl)pyrimidin-2-ylamino)phenyl)methanone] | 620 | – | 1570 | – | 350 | – | – | – | – | 1340 | > 10000 | > 10000 | – | – | – | – | – | – | – |

Reference: patent publication US8309550B2, “Kinase inhibitors and their use as pharmaceutical agents” (Shanghai Genomics, Inc., priority 2011, dated 2012)
